{
  "source": "patent US12325866B2",
  "about": "“Systems and methods for growing cells in vitro” (Yissum Research Development Company of the Hebrew …, priority 2016, dated 2025)",
  "key": {"[1]": {"tested_on": "CSIF", "assay": "Conversion of CSIF to adipocytes in serum-free medium (LipidTOX neutral lipid stain)", "type": "cell-based, chicken", "procedure": "FIGS. 4A-D depict conversion of CSIF to adipocytes in serum-free medium. FIGS. 4A-C. LipidTOX™ (Thermo Fisher Scientific) neutral lipid stain of serum-free cultures of CSIF exposed to either 400 μM oleic acid (OA) alone (FIG. 4A) or with 0.5 mM IBMX (OA+IBMX, FIG. 4B), or 10 μM Rosiglitazone (OA+TZD, FIG. 4C) for 7 days. […] FIG. 4D—Normalized intracellular lipid content (in arbitrary fluorescent units) of CSIF cultures treated for 4 and 7 days as prescribed above.\nTo develop a protocol for conversion of the spontaneously immortalized chicken fibroblasts (CSIF line) under serum-free conditions, the present inventor seeded the CSIF at 70% confluence in the optimized serum-free DMEM/F12 medium supplemented with dexamethasone (0.1 μM), 1×ITS+3 (Sigma, 12771), and bFGF (10 ng/ml). The CSIF cells were treated for 4 or 7 days with 200 to 400 μM oleic acid alone, or in combination with 0.5 mM IBMX, or 10 μM of the FDA-approved small molecule Rosiglitazone."}, "[2]": {"tested_on": "stromal-vascular cells derived from chicken adipose tissues", "details": "oleic acid 200-400 μM, in the presence of serum; cited from earlier work"}, "[3]": {"tested_on": "primary chicken embryonic fibroblasts (CEF)", "assay": "Proliferation of primary CEF in serum-free media / with supplements", "type": "cell-based", "details": "serum-free medium, or minimal medium plus supplement (EGF 5 ng/ml, PGE2 0.01 μM, GH 10 ng/ml)", "procedure": "The CSIFs readily grow on tissue culture plastic in DMEM/F12 medium supplemented with 15% FBS, and 2 mM of […] (FIG. 2D). There are several serum-free medium formulations for the growth of human and mouse fibroblasts, including PCS-201-040 (ATCC) and […] To develop a serum-free medium that supports the culture of CEF and CS IF, the present inventor formulated a minimal medium composed of DMEM/F12 supplemented with 0.1 μM dexamethasone, 10 μg/ml insulin, 5.5 μg/ml transferrin, and 5 ng/ml selenium (ITS), 12 μM linoleic and 12 μM oleic acids, and 2 mM of […]. Cells were plated in FBS containing medium, and transferred to minimal medium after overnight attachment. Basal medium was supplemented with growth factors and hormones showing that while heparin and T3 had little effect of CSIF growth (data not shown), the addition of basic Fibroblast Growth Factor (bFGF, 10 ng/ml) was essential (FIGS. 3C and 3F), showing 20±2 hours doubling time (data not shown)."}, "[4]": {"tested_on": "CSIF", "assay": "Serum-free medium development: sulforhodamine B stain and protein content after 72 hours", "type": "cell-based, chicken", "details": "for Effect on CSIF growth / proliferation: supplement added to minimal serum-free medium, bFGF 10 ng/ml, EGF 5 ng/ml, PGE2 0.01 μM, GH 10 ng/ml", "procedure": "FIGS. 3A-F depict the development and identification of serum-free medium for CSIF propagation. Shown are sulforhodamine B stain (FIGS. 3A-E) and protein content quantification (FIG. 3F) following 72 hours of culture with 15% serum (“FBS”), minimal serum-free medium (MIN) alone (FIG. 3B) or with 10 ng/ml basic Fibroblast Growth Factor (bFGF, FIG. 3C), 5 ng/ml Epidermal Growth Factor (EGF, FIG. 3D), 0.01 μM Prostaglandin E2 (PGE2, FIG. 3E), or 10 ng/ml Growth Hormone. Serum-free medium (SFM) contained MIN medium supplemented with bFGF (10 ng/ml), EGF (5 ng/ml), and PGE2 ([…]).\nTo develop a serum-free medium that supports the culture of CEF and CS IF, the present inventor formulated a minimal medium composed of DMEM/F12 supplemented with 0.1 μM dexamethasone, 10 μg/ml insulin, 5.5 μg/ml transferrin, and 5 ng/ml selenium (ITS), 12 μM linoleic and 12 μM oleic acids, and 2 mM of L-Analyl-L-Glutamine. Cells were plated in FBS containing medium, and transferred to minimal medium after overnight attachment. Basal medium was supplemented with growth factors and hormones showing that while heparin and T3 had little effect of CSIF growth (data not shown), the addition of basic Fibroblast Growth Factor (bFGF, 10 ng/ml) was essential (FIGS. 3C and 3F), showing 20±2 hours doubling time (data not shown)."}, "[5]": {"tested_on": "CSIF", "assay": "Dox-induced MyoD1+MYOG conversion to myocytes, rMLC3-GFP reporter", "type": "cell-based, chicken", "details": "Dox-induced MyoD1+MYOG expression for 11 or 30 days", "excerpt": "FIGS. 5A-E depict conversion of CSIF to myocytes. FIG. 5A—Phase image of CSIF expressing Dox-inducible MyoD1 and Myogenin (MYOG) for 6 days (“d6”). FIGS. 5B-C—CSIF expressing rat myosin light chain COP-GFP reporter (rMLC3-GFP) following Dox-induced MyoD1+MYOG expression for 11 days (FIG. 5B) or 30 days (FIG. 5C). About 2-4% of the cultures become positive for MLC3 (Green). MLC3 positive myoblasts maintain elongated fiber morphology for over 30 days in vitro (FIG. 5C). FIG. 5D—Fluorescence staining using phalloidin (F-Actin probe, green) showing multinucleated cells (syncytia) as well as some striation following 7 days in culture. Nuclei are stained with Hoechst (blue). FIG. 5E—Immunofluorescence staining for α1-skeletal muscle actin (ACTA1, green) and Troponin T (red) showing a clear muscle phenotype by day 7 of induction. Nuclei are stained with Hoechst (blue).\nTo examine if similar conversion of chicken cells to myocytes is possible, the present inventor generated several nucleic acid constructs (vectors) as is schematically illustrated in FIGS. 6-8 and 12. […] A second lentiviral vector (SEQ ID NO:2, FIG. 7) was created for Dox-inducible chicken MYOG expression included the cMyogenin coding sequence (SEQ ID NO: 7) under the control of the minimal CMV promoter (SEQ ID NO: 8). […]"}, "[6]": {"tested_on": "primary CEF", "details": "oleic acid 400 μM with 20% serum; selenium 100-300 μg/l with 2% serum; cited from earlier work"}},
  "data": [
    {"compound": "CC(C)Cn1c(=O)n(C)c(=O)c2[nH]cnc21", "note": "[IBMX, 3-isobutyl-1-methylxanthine]", "values": [
      {"measurement": "Normalized intracellular lipid content", "setting": "[1]; 4 and 7 days, 400 μM OA with small molecule (FIG. 4D)", "value": "optimal results"},
      {"measurement": "Adipogenesis (neutral lipid stain)", "setting": "[1]; 7 days, with 400 μM oleic acid, IBMX 0.5 mM, Rosiglitazone 10 μM", "value": "strong adipogenesis"},
      {"measurement": "Adipogenic phenotype (cell shape)", "setting": "[1]; added to oleic acid, IBMX 0.5 mM, Rosiglitazone 10 μM", "value": "supported a rounded adipogenic phenotype"},
      {"measurement": "Differentiation of chicken preadipocytes to adipocytes", "setting": "[2]", "value": "no affect"}
    ]},
    {"compound": "CCCCC[C@H](O)/C=C/[C@H]1[C@H](O)CC(=O)[C@@H]1C/C=C\\CCCC(=O)O", "note": "[PGE2, Prostaglandin E2]", "values": [
      {"measurement": "Proliferation of primary CEF", "setting": "[3]", "value": "supported the proliferation"},
      {"measurement": "Effect on CSIF growth / proliferation", "setting": "[4]", "value": "supported the proliferation"}
    ]},
    {"compound": "N[C@@H](Cc1cc(I)c(Oc2ccc(O)c(I)c2)c(I)c1)C(=O)O", "note": "[T3]", "values": [
      {"measurement": "Effect on CSIF growth / proliferation", "setting": "[4]", "value": "little effect"}
    ]},
    {"compound": "C[C@H]1c2cccc(O)c2C(=O)C2=C(O)[C@]3(O)C(=O)C(C(N)=O)=C(O)[C@@H](N(C)C)[C@@H]3[C@@H](O)[C@@H]21", "note": "[doxycycline, Doxycycline]", "values": [
      {"measurement": "Cultures positive for MLC3", "setting": "[5]", "value": "2-4%"}
    ]},
    {"compound": "CCCCCCCC/C=C\\CCCCCCCC(=O)O", "note": "[oleic acid]", "values": [
      {"measurement": "Lipid accumulation", "setting": "[1]; 200 to 400 μM oleic acid, 4 or 7 days, serum-free", "value": "increased lipid accumulation"},
      {"measurement": "Differentiation of chicken preadipocytes to adipocytes", "setting": "[2]", "value": "induces their differentiation to adipocytes"},
      {"measurement": "Lipid accumulation in primary CEF", "setting": "[6]", "value": "induced lipid accumulation"}
    ]},
    {"compound": "GH: Growth Hormone", "values": [
      {"measurement": "Proliferation of primary CEF", "setting": "[3]", "value": "supported the proliferation"},
      {"measurement": "Effect on CSIF growth / proliferation", "setting": "[4]", "value": "supported the proliferation"}
    ]},
    {"compound": "bFGF: basic fibroblast growth factor", "values": [
      {"measurement": "Doubling time", "setting": "[4]; minimal medium plus bFGF 10 ng/ml (data not shown)", "value": "20 ± 2", "unit": "h"},
      {"measurement": "Effect on CSIF growth / proliferation", "setting": "[4]", "value": "essential"}
    ]},
    {"compound": "heparin", "values": [
      {"measurement": "Effect on CSIF growth / proliferation", "setting": "[4]", "value": "little effect"}
    ]}
  ]
}
